Test results from PubChem BioAssay AID1963850 (Molecular Pharmacology Branch, DTP, NCI, 2024).
Where “and” joins values, the source holds several entries; their conditions need not be identical. Equal values may be shown once.

Tested on: 192522-019-R-J2-PDC complex tumor spheroid viability
Test: Anticancer human tumor 192522-019-R-J2-PDC patient-derived colon adenocarcinoma cell line growth inhibition [POLQ]
Settings: for viability, T/C: stronger effect = lower value
Description: Multicellular complex tumor spheroid response to Polymerase (POL) inhibitors (novobiocin, ART-558, RP6685) in combination with a variety of drugs and investigational agents in selected tumor cell lines
The POL inhibitors (novobiocin, ART-558, and RP6685) were evaluated both individually and in combination with standard of care and investigational anticancer small molecules within a complex spheroid model of solid tumors. . Complex spheroids include a stromal component modeled by human endothelial cells (HUVEC) and fibroblasts modeled by human mesenchymal stem cells (MSCs). The concentration ranges selected for each drug and investigational agent were based upon clinically achievable concentrations if the clinical Cmax of the agent was known.
Compounds. The drugs and investigational agents: novobiocin (NSC847541), ART-558 (NSC835418), RP-6685 (NSC848927), peposertib (NSC802822), ceralasertib (NSC780249), elimusertib (NSC800525), camonsertib (NSC841442), AZD-1390 (NSC803789), olaparib (NSC753686), talazoparib (NSC767125), rucaparib (NSC756644), sotorasib (NSC818433), MRTX-1133 (NSC836407), SN-38 (NSC673596), topotecan (NSC609699), epotoside (NSC141540), doxorubicin (NSC123127), gemcitabine (NSC613327), 5-fluorouracil (NSC19893), paclitaxel (NSC125973), vemurafenib (NSC761431), MSA-2 (NSC828583), SN-011 (NSC837082), adavosertib (NSC754352), prexasertib (NSC758257), carboplatin (NSC241240) and oxaliplatin (NSC266046), were obtained from the National Cancer Institute (NCI) Developmental Therapeutics Program Chemical Repository (21). The FDA-approved anticancer drug set is available from the Developmental Therapeutics Program at https://dtp.cancer.gov/organization/dscb/obtaining/. […] The stock solutions were prepared in dimethyl sulfoxide (DMSO, Sigma-Aldrich, St. Louis, MO, cat. D2650), except for the platinum compounds which were prepared in saline (Quality Biological, Gaithersburg, MD, cat. 114-055-101), at 800-fold the tested concentration and stored at -70 degrees C prior to their use. All drugs and investigational agents were tested over a range starting from a high concentration at or near the clinical Cmax and decreasing in half-log increments. If the clinical Cmax for an agent had not been determined, the highest concentration tested was 10 microM, except for SN-38, which was tested at a high concentration of 1 microM.
Cell Culture. All cells were maintained in an incubator at 37 degrees C and 5% CO2 with 95% humidity. The PDC lines were cultured according to standard operating procedures established by the NCI PDMR (https://pdmr.cancer.gov). Table 3 of the manuscript, lists the cell lines along with the number of the three cell types plated to form the mct-spheroids and media for tumor cell growth. After thawing, all PDC lines, except 997537-175-T-J1-PDC and 415267-285-R-J2-PDC, were cultured in Matrigel-coated flasks prepared with a working solution of 1X Ham's F-12 nutrient mix, without supplementation (Thermo Fisher Scientific, cat. 11765054), 100 U/mL penicillin-streptomycin (Thermo Fisher Scientific, cat. 15140122), and 2.5% Matrigel (Corning Inc., Corning, NY, cat. 354248) for the first three passages. The two PDC lines 997537-175-T-J1-PDC and 415267-285-R-J2-PDC were cultured on uncoated flasks. The 857933-349-R-J2-PDC line was cultured in 6C/Colon 1B media containing advanced DMEM/F-12 (Thermo Fisher Scientific, cat. 12634028), 10 mM HEPES (Thermo Fisher Scientific, cat. 15630080), 1X GlutaMAX supplement (Thermo Fisher Scientific, cat. 35050061), 0.1 mg/mL primocin (InvivoGen, San Diego, CA, cat. ant-pm-2), 10% defined fetal bovine serum, heat inactivated (HyClone Laboratories Inc., Logan, UT, cat. SH30070.03HI), 50% L-WRN conditioned media (ATCC, cat. CRL-3276), 1.25 mM N-Acetyl-L-cysteine (Sigma-Aldrich, cat. A9165), 10 mM nicotinamide (Sigma-Aldrich, cat. N0636), 1X B-27 supplement (Thermo Fisher Scientific, cat. 17504044), 1X N-2 supplement (Thermo Fisher Scientific, cat. […]

[1] = curve of first compound, second compound 0.0316 µM
[2] = curve of first compound, second compound 0.1 µM
[3] = curve of first compound, second compound 0.316 µM
[4] = curve of first compound, second compound 1 µM
[5] = curve of first compound, second compound 3.16 µM
[6] = curve of first compound, second compound 10 µM
[7] = second compound 0.0316 µM, first compound 0.0316 µM
[8] = second compound 0.0316 µM, first compound 0.1 µM
[9] = second compound 0.0316 µM, first compound 0.316 µM
[10] = second compound 0.0316 µM, first compound 1 µM
[11] = second compound 0.0316 µM, first compound 3.16 µM
[12] = second compound 0.0316 µM, first compound 10 µM
[13] = second compound 0.1 µM, first compound 0.0316 µM
[14] = second compound 0.1 µM, first compound 0.1 µM
[15] = second compound 0.1 µM, first compound 0.316 µM
[16] = second compound 0.1 µM, first compound 1 µM
[17] = second compound 0.1 µM, first compound 3.16 µM
[18] = second compound 0.1 µM, first compound 10 µM
[19] = second compound 0.316 µM, first compound 0.0316 µM
[20] = second compound 0.316 µM, first compound 0.1 µM
[21] = second compound 0.316 µM, first compound 0.316 µM
[22] = second compound 0.316 µM, first compound 1 µM
[23] = second compound 0.316 µM, first compound 3.16 µM
[24] = second compound 0.316 µM, first compound 10 µM
[25] = second compound 1 µM, first compound 0.0316 µM
[26] = second compound 1 µM, first compound 0.1 µM
[27] = second compound 1 µM, first compound 0.316 µM
[28] = second compound 1 µM, first compound 1 µM
[29] = second compound 1 µM, first compound 3.16 µM
[30] = second compound 1 µM, first compound 10 µM
[31] = second compound 3.16 µM, first compound 0.0316 µM
[32] = second compound 3.16 µM, first compound 0.1 µM
[33] = second compound 3.16 µM, first compound 0.316 µM
[34] = second compound 3.16 µM, first compound 1 µM
[35] = second compound 3.16 µM, first compound 3.16 µM
[36] = second compound 3.16 µM, first compound 10 µM
[37] = second compound 10 µM, first compound 0.0316 µM
[38] = second compound 10 µM, first compound 0.1 µM
[39] = second compound 10 µM, first compound 0.316 µM
[40] = second compound 10 µM, first compound 1 µM
[41] = second compound 10 µM, first compound 3.16 µM
[42] = second compound 10 µM, first compound 10 µM
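Also: spheroids exposed to drugs for seven days before reading.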
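For viability, T/C in this document: 100% = DMSO vehicle control viability in luminescence.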

Structure (SMILES): O=C(c1cc(Cc2n[nH]c(=O)c3ccccc23)ccc1F)N1CCN(C(=O)C2CC2)CC1 + COC1C(OC(N)=O)C(O)C(Oc2ccc3c(O)c(NC(=O)c4ccc(O)c(CC=C(C)C)c4)c(=O)oc3c2C)OC1(C)C
- IC50 [1]: > 10 µM
- IC50 [2]: > 10 µM
- IC50 [3]: > 10 µM
- IC50 [4]: > 10 µM
- IC50 [5]: > 10 µM
- IC50 [6]: > 10 µM
- viability, T/C [7]: 113%
- viability, T/C [8]: 95.1%
- viability, T/C [9]: 110%
- viability, T/C [10]: 93%
- viability, T/C [11]: 102%
- viability, T/C [12]: 104%
- viability, T/C [13]: 105%
- viability, T/C [14]: 102%
- viability, T/C [15]: 96.2%
- viability, T/C [16]: 98.2%
- viability, T/C [17]: 101%
- viability, T/C [18]: 97.1%
- viability, T/C [19]: 99%
- viability, T/C [20]: 98.9%
- viability, T/C [21]: 95.8%
- viability, T/C [22]: 97%
- viability, T/C [23]: 105%
- viability, T/C [24]: 90.5%
- viability, T/C [25]: 99.7%
- viability, T/C [26]: 98.5%
- viability, T/C [27]: 100%
- viability, T/C [28]: 97.3%
- viability, T/C [29]: 106%
- viability, T/C [30]: 91.4%
- viability, T/C [31]: 102%
- viability, T/C [32]: 98.8%
- viability, T/C [33]: 107%
- viability, T/C [34]: 99.8%
- viability, T/C [35]: 106%
- viability, T/C [36]: 99.2%
- viability, T/C [37]: 97.9%
- viability, T/C [38]: 96.6%
- viability, T/C [39]: 105%
- viability, T/C [40]: 109%
- viability, T/C [41]: 106%
- viability, T/C [42]: 101%

Structure (SMILES): COc1ccc([C@@H](O)c2cc(-c3ncnc4cc(N5CCOCC5)ccc34)c(F)cc2Cl)nn1
- viability, T/C (compound 0.0316 µM): 105% and 101% and 113%
- viability, T/C (compound 0.1 µM): 93.6% and 91.3% and 99.9%
- viability, T/C (compound 0.316 µM): 100% and 94.7% and 106%
- viability, T/C (compound 1 µM): 77.6% and 101% and 102%
- viability, T/C (compound 3.16 µM): 83% and 75.1% and 92.5%
- viability, T/C (compound 10 µM): 54.5% and 64.9% and 65.9%
- IC50 (curve of compound): > 10 µM

Structure (SMILES): CC(C)n1c(=O)n(C)c2cnc3cc(F)c(-c4ccc(OCCCN5CCCCC5)nc4)cc3c21
- viability, T/C (compound 0.0316 µM): 102% and 106% and 98.7%
- viability, T/C (compound 0.1 µM): 87.7% and 95.6% and 105%
- viability, T/C (compound 0.316 µM): 89.9% and 108% and 92.3%
- viability, T/C (compound 1 µM): 114% and 122% and 112%
- viability, T/C (compound 3.16 µM): 118% (2×) and 130%
- viability, T/C (compound 10 µM): 92.8% and 101% and 90.6%
- IC50 (curve of compound): > 10 µM

Structure (SMILES): COC1C(OC(N)=O)C(O)C(Oc2ccc3c(O)c(NC(=O)c4ccc(O)c(CC=C(C)C)c4)c(=O)oc3c2C)OC1(C)C (stereo not given)
- viability, T/C (compound 0.0316 µM): 108% [middle of 13 runs]
- viability, T/C (compound 0.1 µM): 106% [middle of 13 runs]
- viability, T/C (compound 0.316 µM): 106% [middle of 13 runs]
- viability, T/C (compound 1 µM): 103% [middle of 13 runs]
- viability, T/C (compound 3.16 µM): 101% [middle of 13 runs]
- viability, T/C (compound 10 µM): 106% [middle of 13 runs]
- IC50 (compound alone, run of 10/31/2023): > 10 µM

Structure (SMILES): O=C(Nc1ccc(O)c(NS(=O)(=O)c2ccc(F)cc2)c1)c1ccc(-c2ccccc2)cc1 + Cc1cccc(N(C)C(=O)C2C(O)CCN2c2nc(C)cc(C(F)(F)F)c2C#N)c1
- IC50 [1]: > 10 µM
- IC50 [2]: > 10 µM
- IC50 [3]: > 10 µM
- IC50 [4]: > 10 µM
- IC50 [5]: > 10 µM
- IC50 [6]: > 10 µM
- viability, T/C [7]: 94.8%
- viability, T/C [8]: 97.5%
- viability, T/C [9]: 98.2%
- viability, T/C [10]: 96.3%
- viability, T/C [11]: 106%
- viability, T/C [12]: 109%
- viability, T/C [13]: 101%
- viability, T/C [14]: 98.5%
- viability, T/C [15]: 99.7%
- viability, T/C [16]: 90.4%
- viability, T/C [17]: 101%
- viability, T/C [18]: 94.8%
- viability, T/C [19]: 96.9%
- viability, T/C [20]: 96.4%
- viability, T/C [21]: 93.5%
- viability, T/C [22]: 101%
- viability, T/C [23]: 103%
- viability, T/C [24]: 101%
- viability, T/C [25]: 113%
- viability, T/C [26]: 106%
- viability, T/C [27]: 101%
- viability, T/C [28]: 102%
- viability, T/C [29]: 98.9%
- viability, T/C [30]: 103%
- viability, T/C [31]: 103%
- viability, T/C [32]: 104%
- viability, T/C [33]: 106%
- viability, T/C [34]: 100%
- viability, T/C [35]: 108%
- viability, T/C [36]: 105%
- viability, T/C [37]: 114%
- viability, T/C [38]: 100%
- viability, T/C [39]: 106%
- viability, T/C [40]: 97.9%
- viability, T/C [41]: 99.8%
- viability, T/C [42]: 98.5%
